The test system of assay [1] is synaptosomes from the striatal area of rat brain. Nature of the assay: [3H]Dopamine release from rat striatal synaptosomes (continuous perfusion). The note with it: 0.2 ml of a 20 μM solution of ligand, relative to equal concentration of S(-) nicotine, read-out: Dopamine Release (percent release relative to S(-) nicotine). The assay is classed as cell-based, rat (Sprague-Dawley). On the procedure: Dopamine release was measured by preparing synaptosomes from the striatal area of rat brain obtained from Sprague-Dawley rats generally according to the procedures set forth by Nagy, et al., J. Neurochem., Vol. 43, pp. 1114-1123 (1984). Striata from 4 rats were homogenized in 2 ml of 0.32M sucrose buffered with 5 mM HEPES (pH 7.5), using a glass-teflon tissue grinder. The homogenate was diluted to 5 ml with additional homogenization solution and centrifuged at 1000×g for 10 min. This procedure was repeated on the new pellet
the resulting supernatant was centrifuged at 12,000×g for 20 min. A 3 layer discontinuous Percoll gradient consisting of 16 percent, 10 percent and 7.5 percent Percoll in HEPES-buffered sucrose was made with the final pellet dispersed in the top layer. After centrifugation at 15,000×g for 20 min., the synaptosomes were recovered above the 16 percent layer with a pasteur pipette, diluted with 8 ml of perfusion buffer (128 mM NaCl, 2.4 mM KCl, 3.2 mM CaCl2, 1.2 mM KH2 PO4, 1.2 mM MgSO4, 25 mM HEPES pH 7.4, 10 mM dextrose, 1 mM ascorbate, 0.01 mM pargyline), and centrifuged at 15,000×g for 20 min. The new pellet was collected and re-suspended in perfusion buffer. The synaptosome suspension was incubated for 10 min. at 37° C. Then [^3 H]dopamine (Amersham, 40-60 Ci/mmol) was added to the suspension to give a final concentration of 0.1 μM in suspension, and the suspension was incubated for another 5 min. Using this method, 30 to 90 percent of the dopamine was taken up into the synaptosomes, as determined by scintillation counting following filtration through glass fiber filters soaked with 0.5 percent polyethyleneimine. A continuous perfusion system was used to monitor release following exposure to each ligand (i.e., 5-fluoronicotine, 5-bromonicotine, 4^1 -methylnicotine, 5'-methylnicotine, and 5-methylnicotine). Synaptosomes were loaded onto glass fiber filters (Gelman type A/E). Perfusion buffer was dripped onto the filters (0.2-0.3 ml/min.) and pulled through the filters with a peristaltic pump. Synaptosomes were washed with perfusion buffer for a minimum of 20 min. before addition of the ligand. After the addition of a 0.2 ml of a 20 μM solution of ligand, the perfusate was collected into scintillation vials at 1 min. intervals and the dopamine released was quantified by scintillation counting. Peaks of radioactivity released above background were summed and the average basal release during that time was subtracted from the total. Release was expressed as a percentage of release obtained with an equal concentration of S(-) nicotine.

Assay [2] has as its target high affinity nicotinic receptors. The assay is described as follows: Inhibition of L-[3H]nicotine binding to mouse brain membrane preparations. Also noted: species or system mouse (DBA strain). The note with it: mouse brain membranes, 2 hr at 4° C., Ki calculated from IC50 by Cheng method. On the procedure:
Mice (DBA strain) were maintained on a 12 hour light/dark cycle and were allowed free access to water and food supplied by Wayne Lab Blox, Madison, WI. Animals used in the present studies were 60 to 90 days of age and weighed 20 to 25 g. Brain membrane preparations were obtained from pooled brain tissue of both males and females.
Mice were killed by cervical dislocation. Brains were removed and placed on an ice-cold platform. The cerebellum was removed and the remaining tissue was placed in 10 volumes (weight:volume) of ice-cold buffer (Krebs-RingersHEPES:NaCl, 118 mM; KCl, 4.8 mM; CaCl2, 2.5 mM; MgSO4, 1.2 mM; HEPES, 20 mM; pH to 7.5 with NaOH) and homogenized with a glass-Teflon tissue grinder. The resulting homogenate was centrifuged at 18000×g for 20 min. and the resulting pellet was resuspended in 20 volumes of water. After 60 min. incubation at 4.C, a new pellet was collected by centrifugation at 18000×g for 20 min. After resuspension in 10 volumes of buffer, a new final pellet was again collected by centrifugation at 18000×g for 20 min. Prior to each centrifugation step, the suspension was incubated at 37° C. for 5 min. to promote hydrolysis of endogenous acetylcholine. The final pellet was overlayered with buffer and stored at -70° C. On the day of the assay, that pellet was thawed, resuspended in buffer and centrifuged at 18000×g for 20 min. The resulting pellet obtained was resuspended in buffer to a final concentration of approximately 5 mg protein/ml. Protein was determined by the method of Lowry, et al., J. Biol. Chem., Vol. 193, pp. 265-275 (1951), using bovine serum albumin as the standard.
The binding of L-[^3 H]nicotine was measured using a modification of the method of Romano, et al., Science, Vol. 210, pp. 647-650 (1980) as described previously by Marks, et al., Mol. Pharmacol., Vol. 30, pp. 427-436 (1986). The binding of L-[^3 H]nicotine was measured using a 2 hr. incubation at 4° C. Incubations contained about 500 μg of protein and were conducted in 12 mm×75 mm polypropylene test tubes in a final incubation volume of 250 μl. The incubation buffer was Krebs-Ringers HEPES containing 200 mM TRIS buffer, pH 7.5. The binding reaction was terminated by filtration of the protein containing bound ligand onto glass fiber filters (Micro Filtration Systems) that had been soaked in buffer containing 0.5 percent polyethyleneimine. Filtration vacuum was -50 to -100 torr. Each filter was washed five times with 3 ml of ice-cold buffer. The filtration apparatus was cooled to 2° C. before use and was kept cold through the filtration process. Nonspecific binding was determined by inclusion of 10 μM nonradioactive nicotine in the incubations. The inhibition of L-[^3 H]nicotine binding by test compounds was determined by including one of eight different concentrations of the test compound in the incubation. Inhibition profiles were measured using 10 nM L-[^3 H]nicotine and IC50 values were estimated as the concentration of compound that inhibited 50 percent of specific L-[^3 H]nicotine binding. Inhibition constants (Ki values) were calculated from the IC50 values using the method of Cheng, et al., Biochem. Pharmacol., Vol. 22, pp. 3099-3108 (1973). […] The L-[^3 H]nicotine used in all experiments was purified chromatographically by the method of Romm, et al., Life Sci., Vol. 46, pp. 935-943 (1990).

Structures are written as SMILES.

The term Ki denotes a measure of affinity in units of concentration, obtained from inhibition or displacement. Consider `CC1CC(c2cccnc2)N(C)C1` (racemic) [4^1 -methylnicotine], for which the Emax at 20 µM in assay [1] was found to be 40%. Further, in assay [2], the inhibition constant (Ki) is 91 ± 7 nM.

With `CN1CCCC1c1cncc(Br)c1` (racemic) [5-bromonicotine], the Emax at 20 µM in assay [1] was 65%. For the same compound, the Ki in assay [2] is 44 ± 12 nM.

With `CN1CCCC1c1cncc(F)c1` (racemic) [5-fluoronicotine], the Emax at 20 µM in assay [1] stood at 110%. The Ki in assay [2] was 61 ± 16 nM.

With `Cc1cncc(C2CCCN2C)c1` (racemic) [5-methylnicotine], in assay [1], the Emax at 20 µM turned out to be 30%. The Ki in assay [2] was 2 ± 0.8 nM.

As to `CC1CCC(c2cccnc2)N1C` (racemic) [5^1 -methylnicotine], the Emax at 20 µM in assay [1] worked out at 5%. Also, the inhibition constant Ki in assay [2] was 6400 nM.

These data come from patent US5242935A, “Method for treatment of neurodegenerative diseases” (R. J. Reynolds Tobacco Company, priority 1992, dated 1993).
